# ChEMBL document CHEMBL1201862, “PubChem BioAssay data set” (2004)
#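 Grown in 96-well plates, cells were treated for 48 hours with each compound at five concentrations. Insufficient inhibition: endpoint recorded as highest concentration tested. GI50 marks 50% less growth.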 The source made the active and inactive calls. Cut-off read from the data, not from the text of the source: active = GI50 up to about 1.1 µM and inactive = higher.
# What was measured:
# Assay in all cases: DTP human tumour cell line panel, 48 h
# A498 = system: A498
# SF-295 = system: SF-295
# Malme-3M = system: Malme-3M
# SNB-75 = system: SNB-75
# UACC-257 = system: UACC-257
# HCC 2998 = system: HCC 2998
# NCI-H226 = system: NCI-H226
# SK-MEL-2 = system: SK-MEL-2
# HCT-116 = system: HCT-116
# HL-60 = system: HL-60
# MOLT-4 = system: MOLT-4
# OVCAR-5 = system: OVCAR-5
# SF-539 = system: SF-539
# A549 = system: A549
# DMS-114 = system: DMS-114
# K562 = system: K562
# SK-OV-3 = system: SK-OV-3
# UACC-62 = system: UACC-62
# NCI-H522 = system: NCI-H522
# DMS-273 = system: DMS-273
Compound,GI50 (A498),GI50 (SF-295),GI50 (Malme-3M),GI50 (SNB-75),GI50 (UACC-257),GI50 (HCC 2998),GI50 (NCI-H226),GI50 (SK-MEL-2),GI50 (HCT-116),GI50 (HL-60),GI50 (MOLT-4),GI50 (OVCAR-5),GI50 (SF-539),GI50 (A549),GI50 (DMS-114),GI50 (K562),GI50 (SK-OV-3),GI50 (UACC-62),GI50 (NCI-H522),GI50 (DMS-273)
COc1nc(N)c(C(=O)CCl)c(=O)n1C,15.4 µM (inactive),15.2 µM (inactive),10.5 µM (inactive),13.3 µM (inactive),11.5 µM (inactive),9.68 µM (inactive),4.5 µM (inactive),12.5 µM (inactive),10.9 µM (inactive),2.17 µM (inactive),13.9 µM (inactive),20.2 µM (inactive),18 µM (inactive),18 µM (inactive),16.8 µM (inactive),8.17 µM (inactive),,,,
Cn1ccnc1Sc1ccc(/C=N/NC(=O)c2ccccc2O)cc1[N+](=O)[O-],> 100 µM (inactive),> 100 µM (inactive),40.9 µM (inactive),> 100 µM (inactive),> 100 µM (inactive),96.4 µM (inactive),> 100 µM (inactive),37.8 µM (inactive),70.1 µM (inactive),44.9 µM (inactive),0.428 µM (active),> 100 µM (inactive),60.7 µM (inactive),> 100 µM (inactive),,0.298 µM (active),> 100 µM (inactive),86.1 µM (inactive),41.7 µM (inactive),
COc1cccc(NC(=O)N/C(=C/c2ccc(N(CCC#N)CCC#N)cc2)NC(=O)c2cc([N+](=O)[O-])ccc2Cl)c1,,> 100 µM (inactive),,,,,> 100 µM (inactive),> 100 µM (inactive),> 100 µM (inactive),,35 µM (inactive),> 100 µM (inactive),> 100 µM (inactive),> 100 µM (inactive),37.2 µM (inactive),> 100 µM (inactive),> 100 µM (inactive),89.3 µM (inactive),26.5 µM (inactive),> 100 µM (inactive)
CC(C)(C)c1cc(C(P(=O)(c2ccccc2)c2ccccc2)P(=O)(c2ccccc2)c2ccccc2)cc(C(C)(C)C)c1O,2.74 µM (inactive),1.92 µM (inactive),2.47 µM (inactive),2.71 µM (inactive),2.04 µM (inactive),1.72 µM (inactive),3.44 µM (inactive),1.87 µM (inactive),1.58 µM (inactive),3.03 µM (inactive),2.88 µM (inactive),2.56 µM (inactive),2.25 µM (inactive),2.89 µM (inactive),,3.42 µM (inactive),3.11 µM (inactive),1.58 µM (inactive),2.28 µM (inactive),
COc1ccc(C(=O)c2c(-c3ccccc3NC(=O)C(F)(F)F)[nH]c3ccccc23)cc1,2.17 µM (inactive),12.1 µM (inactive),14.4 µM (inactive),2.47 µM (inactive),15.6 µM (inactive),3.4 µM (inactive),14.7 µM (inactive),4.02 µM (inactive),12.2 µM (inactive),2.42 µM (inactive),2.93 µM (inactive),12.5 µM (inactive),1.94 µM (inactive),5.66 µM (inactive),,5.65 µM (inactive),14.6 µM (inactive),12.1 µM (inactive),7.33 µM (inactive),
Clc1cc(Cl)cc(C2ON=C(c3ccccc3)N2C23CC4CC(CC(C4)C2)C3)c1 (centres undefined),> 10 µM (inactive),> 10 µM (inactive),> 10 µM (inactive),> 10 µM (inactive),> 10 µM (inactive),> 10 µM (inactive),> 10 µM (inactive),> 10 µM (inactive),> 10 µM (inactive),,> 10 µM (inactive),> 10 µM (inactive),> 10 µM (inactive),> 10 µM (inactive),,> 10 µM (inactive),> 10 µM (inactive),> 10 µM (inactive),> 10 µM (inactive),
CCOC(=O)/C(=N/Nc1ccc(C)cc1)N1C(=S)N(C)N=C(C)C=C1S,,19.1 µM (inactive),,29.3 µM (inactive),> 100 µM (inactive),> 100 µM (inactive),,58.1 µM (inactive),> 100 µM (inactive),> 100 µM (inactive),> 100 µM (inactive),> 100 µM (inactive),> 100 µM (inactive),> 100 µM (inactive),,> 100 µM (inactive),55.6 µM (inactive),> 100 µM (inactive),> 100 µM (inactive),
O=C(/N=C(/Nc1ccccc1)SCS/C(=N\C(=O)c1ccco1)Nc1ccccc1)c1ccco1,27.1 µM (inactive),26.5 µM (inactive),> 100 µM (inactive),16.9 µM (inactive),> 100 µM (inactive),53.7 µM (inactive),28 µM (inactive),80.2 µM (inactive),37.2 µM (inactive),,> 100 µM (inactive),> 100 µM (inactive),23.2 µM (inactive),41.5 µM (inactive),52 µM (inactive),> 100 µM (inactive),,> 100 µM (inactive),27.4 µM (inactive),37.8 µM (inactive)
